# Measurements: patent publication US20260078099A1, “COMPOUND, PREPARATION METHOD THEREOF, AND LIPID NANOPARTICLE AND PHARMACEUTICAL COMPOSITION” (priority 2023, published 2026)
# Legend:
# [1] = LNP size and PDI by dynamic light scattering; format: physicochemical; settings: mRNA LNP, cationic lipid/DSPC/cholesterol/PEG-lipid 50:10:38.5:1.5
# Procedure: (§1) In summary, the cationic lipid described herein, DSPC, cholesterol, and PEG-lipid were dissolved in ethanol at a molar ratio of 50:10:38.5:1.5 and diluted in 10 mM to 50 mM citrate buffer at pH 4 with mRNA. Using a microfluidic device, the lipid ethanol solution was mixed with mRNA aqueous solution at a volume ratio of 1:3 and a total flow rate ranging from 6-30 mL/min, preparing LNPs with a total lipid to mRNA weight ratio of approximately 10:1 to 30:1. Ethanol was removed by dialysis and replaced with PBS. Finally, the lipid nanoparticles were filtered through a 0.22 μm sterile filter.
# (§2) The size of lipid nanoparticles was measured by dynamic light scattering using a Malvern Zetasizer Nano ZS (Malvern, UK) with a 90° scattering detection mode. The encapsulation efficiency of lipid nanoparticles was determined using the Quant-it Ribogreen RNA Quantitation Kit (Thermo Fisher Scientific, UK) according to the manufacturer's instructions. The apparent pKa of LNP formulations correlates with the delivery efficiency of nucleic acids by LNPs in vivo. The apparent pKa ranges from approximately 5 to 7. An analysis based on fluorescence from 2-(p-tolylamino)-6-naphthalenesulfonic acid (TNS) was used to determine the apparent pKa of formulations. As described above, LNP formulations containing cationic lipid/DSPC/cholesterol/DMG-PEG (50/10/38.5/1.5 mol %) in PBS were prepared. A 300 μM stock solution of TNS in distilled water was prepared. LNP formulations were diluted to 0.1 mg/mL total lipid in 3 mL of buffer solution containing 50 mM sodium citrate, 50 mM sodium phosphate, 50 mM sodium borate, and 30 mM sodium chloride (pH ranged from 3 to 9). […] S-shaped curve best-fit analysis was applied to the fluorescence data, and the pKa value was measured as the pH value producing half-maximal fluorescence intensity.
# [2] = LNP encapsulation efficiency (Quant-it Ribogreen); format: physicochemical; settings: mRNA LNP, cationic lipid/DSPC/cholesterol/PEG-lipid 50:10:38.5:1.5
# Excerpt: Encapsulation Efficiency: The encapsulation efficiency of a therapeutic and/or prophylactic agent refers to the amount of the therapeutic and/or prophylactic agent encapsulated within or otherwise associated with the nanoparticle composition relative to the initial amount provided during preparation. Encapsulation efficiency is desirably high (such as close to 100%). Encapsulation efficiency can be measured, for example, by comparing the amount of therapeutic and/or prophylactic agent in a solution containing the nanoparticle composition before and after disruption of the nanoparticle composition using one or more organic solvents or detergents. Fluorescence can be used to measure the amount of free therapeutic and/or prophylactic agent (e.g., RNA) in solution. For the nanoparticle compositions described herein, the encapsulation efficiency of the therapeutic and/or prophylactic agent may be at least 50%, such as 50%, 55%, 60%, 65%, 70%, 75%, 80%, 85%, 90%, 91%, 92%, 93%, 94%, 95%, 96%, 97%, 98%, 99%, or 100%. In some embodiments, the encapsulation efficiency may be at least 80%. In certain embodiments, the encapsulation efficiency may be at least 90%.
# as §1, §2
# LNP zeta potential = format: physicochemical; settings: mRNA LNP
# Excerpt: Nanoparticle compositions can be characterized by various methods. For example, the morphology and size distribution of nanoparticle compositions can be examined using microscopy (e.g., transmission electron microscopy or scanning electron microscopy). The zeta potential can be measured using dynamic light scattering or potentiometric titration. Dynamic light scattering can also be used to determine particle size. Instruments such as the Zetasizer Nano ZS (Malvern Instruments Ltd., Malvern, Worcestershire, UK) can also be used to measure multiple characteristics of nanoparticle compositions, such as particle size, polydispersity index, and zeta potential.
# […]: The zeta potential of the nanoparticle composition can indicate the electrophoretic potential of the composition. For example, zeta potential may describe the surface charge of the nanoparticle composition. Nanoparticle compositions with relatively low positive or negative charges are generally desirable, as materials with higher charges may interact undesirably with cells, tissues, and other components in the body. In some embodiments, the zeta potential of the nanoparticle composition may be about −10 mV to about +20 mV, about −10 mV to about +15 mV, about −10 mV to about +10 mV, about −10 mV to about +5 mV, about −10 mV to about 0 mV, about −10 mV to about −5 mV, about −5 mV to about +20 mV, about −5 mV to about +15 mV, about −5 mV to about +10 mV, about −5 mV to about +5 mV, about −5 mV to about 0 mV, about 0 mV to about +20 mV, about 0 mV to about +15 mV, about 0 mV to about +10 mV, about 0 mV to about +5 mV, about +5 mV to about +20 mV, about +5 mV to about +15 mV, or about +5 mV to about +10 mV.
# mice = assay: Bioluminescent study, intramuscular injection of F-luc mRNA LNPs; format: in vivo; settings: F-luc luminescence flux normalized to MC3; 0.25 mg/kg intramuscular, mice n=3, 6-hour time point
# Procedure: The efficacy of nanoparticle compositions was evaluated using bioluminescent studies. A dose of 0.25 mg/kg (mpk) of the formulation was administered to mice (n=3) via intramuscular injection, and bioluminescence was measured at a 6-hour time point. The test lipid nanoparticles from the MC3 formulation were evaluated, and in some cases, controls (e.g., PBS controls) were assessed for comparison.
# The characteristics of the test lipid nanoparticles measured from the test groups, including F-luc luminescence intensity, are listed in the table below.
Compound,PDI [1],Size (nm) [1],Encapsulation efficiency (%) [2],Zeta potential (mV) (LNP zeta potential),Relative Total flux (mice)
CCCCCCC(CCCCCC)OC(=O)CCCCCCCCCNC(=O)C(CCCCCCCCCC(=O)OC(CCCCCC)CCCCCC)N(CCCN(CCO)CCO)C(=O)CCCN(C)C (stereo not drawn) [Compound E3],0.166,93.07 nm,89.28%,−2.06 mV,C (C: ≥0.1 and <1)
CCCCCCCCNC(=O)C(CCCC)N(CCCN(C)C)C(=O)CCCCCCC(=O)OC(CCCCCCCC)CCCCCCCC (stereo not drawn) [Compound A27],0.11,121.37 nm,95.33%,−3.43 mV,A (A: ≥2)
CCCCCCCC(C(=O)NCCCCCCCCCC(=O)OC(CCCCCC)CCCCCC)N(CCCN(CCO)CCO)C(=O)CCCCCCCCCC(=O)OCC1CC=CCC1 (stereo not drawn) [Compound B5],0.163,55.64 nm,95.00%,6.08 mV,A (A: ≥2)
CCCCC/C=C\C/C=C\CCCCCCCCNC(=O)C(CCCCCCCC)N(CCCCCCCC/C=C\C/C=C\CCCCC)C(=O)CCCN1CCCC1 (stereo not drawn) [Compound C4],–,–,–,–,B (B: ≥1 and <2)
CCCCCCCCC(C(=O)NCCCCCCCCCC(=O)OCC1CC=CCC1)N(CCCN(C)C)C(=O)CCCCCCCCCC(=O)OC(CCCCCC)CCCCCC (stereo not drawn) [Compound A20],0.113,93.07 nm,60.65%,17.70 mV,D (D: <0.1.)
CCCCCCCC(C(=O)NCCCCCCCCCC(=O)OC(CCCCCC)CCCCCC)N(CCCN(CCO)C1CCCC1)C(=O)CCCCCCCCCC(=O)OC(CCCCCC)CCCCCC (stereo not drawn) [Compound B12],0.183,65.03 nm,93.45%,−9.02 mV,A (A: ≥2)
CCCCC/C=C\C/C=C\CCCCCCCCNC(=O)C(CCCCCCCC)N(CCCCCCCC/C=C\C/C=C\CCCCC)C(=O)CCCN(C)CCO (stereo not drawn) [Compound C6],–,–,–,–,D (D: <0.1.)
CCCCCCCCC(CCCCCCCC)OC(=O)CCCCCCC(=O)N(CCCN(C)C)C(CCCCCCCC)C(=O)NCCCCCC(=O)OCCC12CC3CC(CC(C3)C1)C2 (stereo not drawn) [Compound A47],–,–,–,–,A (A: ≥2)
CCCCCCCC(C(=O)NCCCCCCCCCC(=O)OC(CCCCCC)CCCCCC)N(CCN(C)CCO)C(=O)CCCCCCCCCC(=O)OC(CCCCCC)CCCCCC (stereo not drawn) [Compound B9],–,–,–,–,A (A: ≥2)
CCCCCCCCC(C(=O)NCCCCCCCCCC(=O)OCCCCCC)N(CCCN(CO)CO)C(=O)CCCCCCCCCC(=O)OC(CCCCCC)CCCCCC (stereo not drawn) [Compound B1],–,–,–,–,A (A: ≥2)
CCCCC/C=C\C/C=C\CCCCCCCC(=O)N(CCCN1CCCC1)C(CCCCCCCCCCC)C(=O)NCCCCCCCCCCCCCC (stereo not drawn) [Compound A22],–,–,–,–,C (C: ≥0.1 and <1)
CCCCCCCCNC(=O)C(CCCCCCCC)N(CCN(CC)CC)C(=O)CCCCCCC(=O)OC(CCCCCCCC)CCCCCCCC (stereo not drawn) [Compound A38],–,–,–,–,A (A: ≥2)
CCCCCCCCC(C(=O)NCCCCCCCCCC(=O)OC(CCCCCC)CCCCCC)N(CCCCN1CCN(CCCN(C(=O)CCCCCCCCCC(=O)OC(CCCCCC)CCCCCC)C(CCCCCCCC)C(=O)NCCCCCCCCCC(=O)OC(CCCCCC)CCCCCC)CC1)C(=O)CCCCCCCCCOC(=O)C(CCCCCC)CCCCCC (stereo not drawn) [Compound D3],–,–,–,–,C (C: ≥0.1 and <1)
CCCCCCCCC(C(=O)NCCCCCCCCCC(=O)OC(CCCCCC)CCCCCC)N(CCN(C)CCN(C(=O)CCCCCCCCCC(=O)OC(CCCCCC)CCCCCC)C(CCCCCCCC)C(=O)NCCCCCCCCCC(=O)OC(CCCCCC)CCCCCC)C(=O)CCCCCCCCCC(=O)OC(CCCCCC)CCCCCC (stereo not drawn) [Compound D6],–,–,–,–,A (A: ≥2)
CCCCCCCCC(CCCCCC)COC(=O)CCCCCNC(=O)C(CCCCC)N(CCCN(C)C)C(=O)CCCCCC(=O)OCC(CCCCCCCC)CCCCCCCC (stereo not drawn) [Compound A43],–,–,–,–,A (A: ≥2)
CCCCC/C=C\C/C=C\CCCCCCCCNC(=O)C(CCCCCCCC)N(CCCCCCCC/C=C\C/C=C\CCCCC)C(=O)CCCN(C)C (stereo not drawn) [Compound C2],–,–,–,–,B (B: ≥1 and <2)
CCCCCCCCC(CCCCCC)COC(=O)CCCCCNC(=O)C(CCCCC)N(CCCCN(C)C)C(=O)CCCCCC(=O)OCC(CCCCCC)CCCCCCCC (stereo not drawn) [Compound A44],–,–,–,–,B (B: ≥1 and <2)
CCCCCCCCNC(=O)C(CCCCCCCC)N(CC1CCCN(C)C1)C(=O)CCCCCCC(=O)OC(CCCCCCCC)CCCCCCCC (stereo not drawn) [Compound A39],–,–,–,–,A (A: ≥2)
CCCCCCCCNC(=O)C(CCCCCCCC)N(CCCCN1CCCC1)C(=O)CCCCCCC(=O)OC(CCCCCCCC)CCCCCCCC (stereo not drawn) [Compound A37],–,–,–,–,B (B: ≥1 and <2)
CCCCC/C=C\C/C=C\CCCCCCCC(=O)N(CCCCN1CCCC1)C(CCCCCCCCCCC)C(=O)NCCCCCCCCCCCCCC (stereo not drawn) [Compound A24],–,–,–,–,C (C: ≥0.1 and <1)
CCCCCCCCNC(=O)C(CCCCCCCC)N(CCCN(CC)CCO)C(=O)CCCCCCC(=O)OC(CCCCCCCC)CCCCCCCC (stereo not drawn) [Compound B28],–,–,–,–,A (A: ≥2)
CCCCCCCCC(C(=O)NCCCCCCCCCC(=O)OC(CCCC)CCCCCC)N(CCCN1CCCC1)C(=O)CCCCCCCCCC(=O)OC(CCCC)CCCCCC (stereo not drawn) [Compound A3],–,–,–,–,C (C: ≥0.1 and <1)
CCCCCCCCNC(=O)C(CCCCCCCC)N(CCCN(C)CCCO)C(=O)CCCCCCC(=O)OC(CCCCCCCC)CCCCCCCC (stereo not drawn) [Compound B27],–,–,–,–,B (B: ≥1 and <2)
CCCCC/C=C\C/C=C\CCCCCCCCNC(=O)C(CCCCCCCC)N(CCCCCCCC/C=C\C/C=C\CCCCC)C(=O)CCCN(CCO)CCO (stereo not drawn) [Compound C7],–,–,–,–,D (D: <0.1.)
CCCCCCCCCCCCCCNC(=O)C(CCCCCCCCCCC)N(CCCCN1CCCC1)C(=O)CCCCCCC(=O)OC(CCCCCCCC)CCCCCCCC (stereo not drawn) [Compound A25],–,–,–,–,D (D: <0.1.)
